Experimental data taken from ChEMBL document CHEMBL1144034, “Synthesis and anti-protozoal activity of C2-substituted polyazamacrocycles” (Bioorg Med Chem Lett, 2008).
pEC50: −log10 of the molar value.

Assays:
[1] = Partition coefficient, log P of the compound; assay type: physicochemical; details: octanol/water
[2] = system: Plasmodium falciparum; test: Antiprotozoal activity against Plasmodium falciparum; assay type: functional, organism-based
[3] = Cytotoxicity against HEK cells; assay type: cell-based; details: Homo sapiens, HEK293
[4] = system: Trypanosoma brucei; test: Antiprotozoal activity against Trypanosoma brucei by Alamar blue assay; assay type: functional, organism-based

| SMILES | logP [1] | pEC50 [2] | pEC50 [3] | pEC50 [4] |
| --- | --- | --- | --- | --- |
| C1CNCCNCCNCCN1 | -1.8 | < 4.00 | 5.30 | < 3.70 |
| O=[N+]([O-])c1ccc(C2CNCCNCCNCCN2)cc1 (configuration not stated) | -0.4 | 4.89 | < 3.70 | < 3.70 |
| c1ccc(C2CNCCNCCNCCN2)cc1 (configuration not stated) | -0.2 | 4.59 | < 3.70 | < 3.70 |
| CC(C)(C)C1CNCCNCCNCCN1 (configuration not stated) | -0.1 | < 4.00 | < 3.70 | 3.88 |
| c1csc(C2CNCCNCCNCCN2)c1 (configuration not stated) | -0.4 | 4.33 | < 3.70 | 4.14 |
| Brc1ccc(C2CNCCNCCNCCN2)cc1 (configuration not stated) | 0.7 | 5.24 | < 3.70 | 4.66 |
| FC(F)(F)c1ccc(C2CNCCNCCNCCN2)cc1 (configuration not stated) | 0.8 | 5.30 | 4.14 | 5.17 |
| Clc1ccc(C2CNCCNCCNCCN2)cc1 (configuration not stated) | 0.8 | 5.64 | 3.74 | 5.55 |
| c1ccc2cc(C3CNCCNCCNCCN3)ccc2c1 (configuration not stated) | 1 | 5.77 | < 3.70 | 5.16 |
| c1ccc2c(c1)ccc1cc(C3CNCCNCCNCCN3)ccc12 (configuration not stated) | 2.2 | > 5.82 |  |  |
| FC(F)(F)c1cc(C2CNCCNCCNCCN2)cc(C(F)(F)F)c1 (configuration not stated) | 1.7 | 5.32 | 4.21 | 5.17 |
| COc1ccc(C2CNCCNCCNCCN2)cc1 (configuration not stated) | -0.1 | 4.59 | < 3.70 | < 3.70 |
| c1ccc2c(c1)Cc1cc(C3CNCCNCCNCCN3)ccc1-2 (configuration not stated) | 1.8 | 5.89 | 4.59 | 5.59 |
| CCN(CC)CCCC(C)Nc1ccnc2cc(Cl)ccc12 (configuration not stated) [CHLOROQUINE] |  | 8.10 |  |  |
| N=C(N)c1ccc(OCCCCCOc2ccc(C(=N)N)cc2)cc1 [PENTAMIDINE] |  |  |  | 8.22 |
